# Laboratory results from patent US20100286098A1, “USE OF TETRAHYDROCANNABINOL AND/OR CANNABIDIOL FOR THE TREATMENT OF INFLAMMATORY BOWEL DISEASE” (GW Pharma Limited, priority 2007, published 2010).
# Assays:
# Assay type in all cases: in vivo, rat
# [1] = test system: TNBS (trinitrobenzenesulfonic acid) model of colitis; test: TNBS model of colitis, macroscopic damage score (MDS); conditions: for MDS, mean: 72 h after TNBS, 0-13 scale
# Method: (§1) In this example, the TNBS (trinitrobenzenesulfonic acid) model of colitis was used to characterize the effects of CBD alone, THC alone and a combination of CBD and THC (in two different ratios) on inflammation and in vitro motility and secretory parameters.
# (§2) Colitis was evoked in male Wistar rats by intra-colonic administration of 6.7 mg TNBS in 0.25 ml 25% ethanol. The degree of inflammation was quantified using a macroscopic damage score (MDS, 0-13 scale) and myeloperoxidase (MPO) activity.
# (§3) CBD was used at doses of 5, 10, 15 and 20 mg/kg. THC was used at doses of 5, 10 and 20 mg/kg. In addition THC at doses of 5 and 10 mg/kg was administered in combination with CBD at a dose of 10 mg/kg.
# (§4) Doses were administered i.p., once daily starting 0.5 hour before TNBS administration and animals (n=6-11 per group) were sacrificed 72 hours after colitis induction.
# [2] = test system: myeloperoxidase (MPO) activity; test: TNBS model of colitis, myeloperoxidase (MPO) activity; conditions: for MPO, mean: 72 h after TNBS
# Method: as §1, §2, §3, §4
# [3] = test system: mucosa-submucosa preparations; test: Ussing chamber, secretory response evoked by veratridine (nerve stimulation), TNBS colitis rats
# Method: (§5) Using the Ussing chamber technique, secretory responses evoked by veratridine (a nerve stimulant, 1×10^−5M) were assessed and expressed as % response to carbachol (1×10−5M).
# as §3, §4
# [4] = test system: mucosa-submucosa preparations; test: Ussing chamber, secretory response to carbachol (ΔIsc), TNBS colitis rats; conditions: THC alone, data not shown
# Method: as §5, §3, §4
SMILES,"MDS, mean ([1]; CBD 5 mg/kg i.p. once daily, vehicle 5.46)","MDS, mean ([1]; CBD 15 mg/kg i.p. once daily, vehicle 5.46)","MDS, mean ([1]; CBD 20 mg/kg i.p. once daily, vehicle 5.46)","MPO, mean ([2]; CBD 5 mg/kg i.p. once daily, vehicle 6.03)","MPO, mean ([2]; CBD 10 mg/kg i.p. once daily, vehicle 6.03)","MPO, mean ([2]; CBD 15 mg/kg i.p. once daily, vehicle 6.03)","MPO, mean ([2]; CBD 20 mg/kg i.p. once daily, vehicle 6.03)","effect on MPO across doses ([2]; CBD 5, 10, 15 and 20 mg/kg i.p.)","MDS, mean ([1]; THC 5 mg/kg i.p. once daily, vehicle 6.00)","MDS, mean ([1]; THC 20 mg/kg i.p. once daily, vehicle 6.00)","dose-response relationship on MDS ([1]; THC 5, 10 and 20 mg/kg i.p.)","MPO, mean ([2]; THC 5 mg/kg i.p. once daily, vehicle 3.35)","secretory response to nerve stimulation ([3]; THC 10 mg/kg i.p. alone, expressed as % response to carbachol, vehicle 24.4±8.2)","secretory responses to nerve stimulation ([3]; THC alone, data not shown)",responses to carbachol [4]
"C=C(C)[C@@H]1CCC(C)=C[C@H]1c1c(O)cc(CCCCC)cc1O [CBD, cannabidiol]",6.75,5.60,4.60,5.38 ngHRP/mg protein,4.65 ngHRP/mg protein,4.00 ngHRP/mg protein,2.68 ngHRP/mg protein,"reduced MPO in a dose dependent manner, but the effect was not significant",–,–,–,–,–,–,–
"CCCCCc1cc(O)c2c(c1)OC(C)(C)[C@@H]1CCC(C)=C[C@@H]21 [THC, tetrahydrocannabinol]",–,–,–,–,–,–,–,–,6.5,4.67,bell-shaped pattern,4.29 ngHRP/mg protein,30.3±7.5,did not affect,not significantly increased
